{"source": "paper PMC9632963", "about": "“Preclinical characterization and phase I clinical trial of CT053PTSA targets MET, AXL, and VEGFR2 in patients with advanced solid tumors” (Frontiers in Immunology, 2022)", "key": {"[1]": {"system": "patients with advanced solid tumors", "test": "Phase I trial: antitumor activity (RECIST 1.1)", "type": "in vivo, human", "description": "Descriptive statistics of safety are presented per CTCAE v4.0. Subjects who received at least one dose of CT053PTSA were considered eligible to be evaluated and included in safety analyses. […] According to the RECIST 1.1 criteria, imaging examinations were performed at each specified time point in the protocol. The antitumor activity was measured by RECIST1.1."}, "MERTK": {"molecular_target": "MERTK (Homo sapiens, UniProt Q12866)", "sequence (Q12866 21-999)": "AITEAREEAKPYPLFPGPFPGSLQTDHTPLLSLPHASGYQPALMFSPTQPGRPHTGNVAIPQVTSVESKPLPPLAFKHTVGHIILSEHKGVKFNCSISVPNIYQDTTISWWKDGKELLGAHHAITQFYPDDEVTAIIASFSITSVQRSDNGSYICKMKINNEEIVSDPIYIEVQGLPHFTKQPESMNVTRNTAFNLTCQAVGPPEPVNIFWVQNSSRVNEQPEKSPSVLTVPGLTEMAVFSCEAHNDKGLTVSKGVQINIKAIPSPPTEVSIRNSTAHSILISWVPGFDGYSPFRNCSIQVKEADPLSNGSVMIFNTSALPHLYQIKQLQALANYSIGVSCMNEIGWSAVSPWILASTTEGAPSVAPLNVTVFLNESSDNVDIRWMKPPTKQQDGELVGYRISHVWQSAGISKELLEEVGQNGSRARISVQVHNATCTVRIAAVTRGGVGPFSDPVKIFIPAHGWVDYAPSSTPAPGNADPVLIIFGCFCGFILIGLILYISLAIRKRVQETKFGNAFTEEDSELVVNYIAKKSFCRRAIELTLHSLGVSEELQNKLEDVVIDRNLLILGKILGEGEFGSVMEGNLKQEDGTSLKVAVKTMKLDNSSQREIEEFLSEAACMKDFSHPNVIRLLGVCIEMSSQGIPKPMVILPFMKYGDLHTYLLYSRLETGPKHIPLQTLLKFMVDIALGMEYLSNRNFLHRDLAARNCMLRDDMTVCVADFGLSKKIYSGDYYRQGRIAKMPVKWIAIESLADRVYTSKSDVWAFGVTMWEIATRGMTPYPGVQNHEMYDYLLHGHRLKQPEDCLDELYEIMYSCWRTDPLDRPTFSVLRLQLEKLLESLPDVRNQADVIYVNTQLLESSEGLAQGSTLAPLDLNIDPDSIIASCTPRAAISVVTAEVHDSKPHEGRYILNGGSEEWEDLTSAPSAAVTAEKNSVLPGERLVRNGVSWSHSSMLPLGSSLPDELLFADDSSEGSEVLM", "test": "Kinase inhibition assay (LANCE or HTRF)", "type": "biochemical", "conditions": "ATP at Km", "protocol": "(§2) The IC50 values were determined by measuring phosphorylation of peptide substrate poly at ATP concentrations at the Km."}, "TXK": {"molecular_target": "TXK (Homo sapiens, UniProt P42681)", "sequence (P42681 whole entry)": "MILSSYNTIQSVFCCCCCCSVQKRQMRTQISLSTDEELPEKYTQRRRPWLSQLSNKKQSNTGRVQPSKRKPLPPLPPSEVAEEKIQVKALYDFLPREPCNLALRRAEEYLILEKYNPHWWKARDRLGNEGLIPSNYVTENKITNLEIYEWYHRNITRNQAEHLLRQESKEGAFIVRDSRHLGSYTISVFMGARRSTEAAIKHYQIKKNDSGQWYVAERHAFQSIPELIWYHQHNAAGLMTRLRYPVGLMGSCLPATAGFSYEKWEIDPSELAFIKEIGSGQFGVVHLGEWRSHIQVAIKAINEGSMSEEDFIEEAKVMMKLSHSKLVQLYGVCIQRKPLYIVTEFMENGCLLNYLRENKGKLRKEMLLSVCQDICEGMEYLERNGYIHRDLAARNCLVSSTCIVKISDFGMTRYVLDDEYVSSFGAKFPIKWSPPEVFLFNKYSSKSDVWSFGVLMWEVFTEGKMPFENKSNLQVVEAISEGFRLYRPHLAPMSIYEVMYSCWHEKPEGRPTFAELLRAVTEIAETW", "test": "Kinase inhibition assay (LANCE or HTRF)", "type": "biochemical", "conditions": "ATP at Km", "protocol": "as §2"}, "ITK": {"molecular_target": "ITK (Homo sapiens, UniProt Q08881)", "sequence (Q08881 whole entry)": "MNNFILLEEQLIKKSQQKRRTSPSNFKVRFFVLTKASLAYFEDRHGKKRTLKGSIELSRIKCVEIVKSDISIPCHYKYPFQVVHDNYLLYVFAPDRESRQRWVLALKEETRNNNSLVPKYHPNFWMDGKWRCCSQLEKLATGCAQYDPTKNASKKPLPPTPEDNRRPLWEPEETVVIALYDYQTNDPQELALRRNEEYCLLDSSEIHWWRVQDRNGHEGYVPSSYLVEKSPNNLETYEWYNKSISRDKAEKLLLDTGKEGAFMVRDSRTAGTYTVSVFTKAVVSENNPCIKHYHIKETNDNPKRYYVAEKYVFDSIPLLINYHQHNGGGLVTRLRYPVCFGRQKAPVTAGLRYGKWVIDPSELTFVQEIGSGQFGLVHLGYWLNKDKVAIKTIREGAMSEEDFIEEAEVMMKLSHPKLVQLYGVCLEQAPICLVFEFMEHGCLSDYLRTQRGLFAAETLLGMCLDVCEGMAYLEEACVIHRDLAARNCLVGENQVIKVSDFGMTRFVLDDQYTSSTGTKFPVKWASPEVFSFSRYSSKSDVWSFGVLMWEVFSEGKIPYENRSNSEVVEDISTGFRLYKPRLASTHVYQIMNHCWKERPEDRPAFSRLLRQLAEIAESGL", "test": "Kinase inhibition assay (LANCE or HTRF)", "type": "biochemical", "conditions": "ATP at Km", "protocol": "as §2"}, "Fer": {"molecular_target": "Fer (Homo sapiens, UniProt P16591)", "sequence (P16591 whole entry)": "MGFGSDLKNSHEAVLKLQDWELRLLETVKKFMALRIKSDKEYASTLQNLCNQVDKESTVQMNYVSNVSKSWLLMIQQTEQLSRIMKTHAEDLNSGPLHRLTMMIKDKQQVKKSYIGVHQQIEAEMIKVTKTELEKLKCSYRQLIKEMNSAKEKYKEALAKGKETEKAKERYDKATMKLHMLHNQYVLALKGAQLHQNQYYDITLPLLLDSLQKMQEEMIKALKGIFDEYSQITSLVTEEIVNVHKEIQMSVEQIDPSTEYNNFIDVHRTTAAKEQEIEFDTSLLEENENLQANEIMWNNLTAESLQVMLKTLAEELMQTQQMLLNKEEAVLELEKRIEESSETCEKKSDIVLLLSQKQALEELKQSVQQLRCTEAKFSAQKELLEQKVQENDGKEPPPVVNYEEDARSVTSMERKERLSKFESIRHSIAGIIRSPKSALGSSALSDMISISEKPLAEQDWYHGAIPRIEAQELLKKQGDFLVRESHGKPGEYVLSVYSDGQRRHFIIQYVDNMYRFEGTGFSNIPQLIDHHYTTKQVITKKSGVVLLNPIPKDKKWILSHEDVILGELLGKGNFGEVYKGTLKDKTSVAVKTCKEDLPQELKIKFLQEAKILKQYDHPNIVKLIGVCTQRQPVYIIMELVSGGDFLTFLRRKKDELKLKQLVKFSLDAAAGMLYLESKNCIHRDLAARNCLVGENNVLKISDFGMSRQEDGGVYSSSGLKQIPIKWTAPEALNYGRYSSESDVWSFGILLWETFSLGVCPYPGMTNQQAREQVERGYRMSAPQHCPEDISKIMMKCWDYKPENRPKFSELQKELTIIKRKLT", "test": "Kinase inhibition assay (LANCE or HTRF)", "type": "biochemical", "conditions": "ATP at Km", "protocol": "as §2"}, "Musk": {"molecular_target": "Musk (Homo sapiens, UniProt O15146)", "sequence (O15146 24-869)": "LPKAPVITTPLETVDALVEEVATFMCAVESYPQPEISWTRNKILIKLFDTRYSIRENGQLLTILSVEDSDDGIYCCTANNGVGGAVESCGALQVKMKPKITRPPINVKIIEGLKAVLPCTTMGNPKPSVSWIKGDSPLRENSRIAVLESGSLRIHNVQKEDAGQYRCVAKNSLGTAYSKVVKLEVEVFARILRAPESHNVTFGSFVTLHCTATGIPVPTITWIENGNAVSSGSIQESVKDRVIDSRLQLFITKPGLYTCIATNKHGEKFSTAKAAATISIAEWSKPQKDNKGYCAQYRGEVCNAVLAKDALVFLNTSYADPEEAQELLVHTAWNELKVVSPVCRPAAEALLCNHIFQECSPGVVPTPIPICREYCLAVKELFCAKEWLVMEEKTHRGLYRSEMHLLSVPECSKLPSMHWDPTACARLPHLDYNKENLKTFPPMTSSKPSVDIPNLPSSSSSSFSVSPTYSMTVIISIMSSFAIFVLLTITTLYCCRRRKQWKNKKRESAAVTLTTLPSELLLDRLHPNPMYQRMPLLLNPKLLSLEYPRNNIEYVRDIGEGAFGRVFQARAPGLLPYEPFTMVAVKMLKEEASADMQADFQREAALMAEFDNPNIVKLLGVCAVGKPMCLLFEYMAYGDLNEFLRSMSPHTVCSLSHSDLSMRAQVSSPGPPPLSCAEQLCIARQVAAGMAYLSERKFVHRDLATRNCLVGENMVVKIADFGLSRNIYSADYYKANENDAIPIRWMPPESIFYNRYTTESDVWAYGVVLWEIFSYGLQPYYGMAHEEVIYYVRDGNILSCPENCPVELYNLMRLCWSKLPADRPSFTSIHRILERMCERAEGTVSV", "test": "Kinase inhibition assay (LANCE or HTRF)", "type": "biochemical", "conditions": "ATP at Km", "protocol": "as §2"}, "AXL": {"molecular_target": "AXL (Homo sapiens, UniProt P30530)", "sequence (P30530 26-894)": "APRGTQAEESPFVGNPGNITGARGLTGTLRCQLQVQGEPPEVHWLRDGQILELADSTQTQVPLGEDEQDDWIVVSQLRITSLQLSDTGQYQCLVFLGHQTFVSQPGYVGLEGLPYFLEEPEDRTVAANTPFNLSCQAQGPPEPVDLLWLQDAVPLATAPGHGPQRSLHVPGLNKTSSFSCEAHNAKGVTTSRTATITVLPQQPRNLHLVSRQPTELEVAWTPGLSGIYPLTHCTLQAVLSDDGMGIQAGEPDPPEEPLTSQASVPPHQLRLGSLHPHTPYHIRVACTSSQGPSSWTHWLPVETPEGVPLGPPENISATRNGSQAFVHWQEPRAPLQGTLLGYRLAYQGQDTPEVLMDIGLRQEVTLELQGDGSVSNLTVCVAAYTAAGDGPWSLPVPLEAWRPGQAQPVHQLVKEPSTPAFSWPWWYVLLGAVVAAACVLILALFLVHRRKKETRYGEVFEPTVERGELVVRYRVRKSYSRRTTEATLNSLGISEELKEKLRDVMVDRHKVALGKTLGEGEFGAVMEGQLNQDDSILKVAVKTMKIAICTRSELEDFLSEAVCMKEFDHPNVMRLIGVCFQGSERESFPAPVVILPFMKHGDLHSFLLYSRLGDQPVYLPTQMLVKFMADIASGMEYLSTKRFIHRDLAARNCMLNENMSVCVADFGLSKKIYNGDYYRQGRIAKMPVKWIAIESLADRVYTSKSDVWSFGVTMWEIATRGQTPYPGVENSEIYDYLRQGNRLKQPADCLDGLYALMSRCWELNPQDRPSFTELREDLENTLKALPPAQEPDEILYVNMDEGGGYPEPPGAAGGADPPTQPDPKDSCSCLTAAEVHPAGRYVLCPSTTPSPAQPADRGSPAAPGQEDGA", "test": "cell-based", "description": "Phosphorylation of the receptors MET, AXL, VEGFR2, and FLT3 was assessed in the transgenic human MKN45 gastric tumor cell line overexpressing MET, mouse embryonic fibroblasts (MEFs) expressing full-length human AXL (AXL-MEFs), human umbilical vein endothelial cells (HUVECs) […], and MEFs expressing full-length human FLT3 (FLT3-wt-MEFs), respectively. […] Then, HUVECs and FLT3-wt-MEFs were stimulated with the ligands VEGF-A (100 ng/ml, for 3 min) and FLT3-ligand (50 ng/ml, for 5 min). MKN45 (overexpressing MET) and AXL-MEFs cells had no stimulation. Cells treated with staurosporine (AXL, FLT3-wt, c-Kit, FLT3, TIE2, VEGF-R2; [1,0E-05 M]) or BMS777607 (MET; [1,0E-06 M]) or sunitinib (VEGF-R3; [1,0E-06 M]) or crizotinib (RON; [1,0E-05 M] were defined as low control (n = 8). The median value of those wells represented the background and was set to 0%. Cells treated with solvent alone were defined as high control (n = 8). The median value of those wells was set to 100%. Test sample-treated cells as well as high and low control were stimulated in identical manner. Quantification of receptor tyrosine kinase autophosphorylation was assessed in 96-well plates via sandwich ELISA using a receptor specific capture antibody and an anti-phosphotyrosine detection antibody. […]"}, "GTL16": {"system": "GTL16", "test": "Cell proliferation assay (CellTiter-Glo, 72 hours)", "type": "cell-based", "conditions": "Homo sapiens, GTL 16, read-out: IC50 anti-proliferative", "protocol": "Human gastric tumor cell lines with high MET expression levels, namely, the GTL-16, MKN45, SNU638, Hs746T, SNU-620, and SNU-5 cell lines, were used in the assay. […] Cell viability was measured after 72 hours using a CellTiter-Glo Luminescent Cell Viability Assay Kit (Promega, WI, USA) according to the manufacturer’s instructions."}, "MKN74": {"system": "MKN74", "test": "Cell proliferation assay (CellTiter-Glo, 72 hours)", "type": "cell-based", "conditions": "Homo sapiens, MKN-74, read-out: IC50 anti-proliferative"}, "AZ521": {"system": "AZ521", "test": "Cell proliferation assay (CellTiter-Glo, 72 hours)", "type": "cell-based", "conditions": "Homo sapiens, AZ-521, read-out: IC50 anti-proliferative"}, "KATOIII": {"system": "KATOIII", "test": "Cell proliferation assay (CellTiter-Glo, 72 hours)", "type": "cell-based", "conditions": "Homo sapiens, KATO III, read-out: IC50 anti-proliferative", "protocol": "These cell lines were obtained from American Type Culture Collection (ATCC), Japanese Collection of Research Bioresources (JCRB), Shanghai Institutes of Biological Sciences, CAS (SIBS), Korean Cell Line Bank (KCLB) or National Institutes of Health (NIH). […] Cell viability was measured after 72 hours using a CellTiter-Glo Luminescent Cell Viability Assay Kit (Promega, WI, USA) according to the manufacturer’s instructions."}, "AKT phosphorylation": {"system": "AKT phosphorylation", "test": "Western blot of signaling molecules in SNU-5 cells", "type": "cell-based, human", "description": "(§1) The SNU-5 cell line was selected for western blotting analysis of signaling molecules. […] Immunoreactive proteins (p-AXL, t-ERK and p-ERK) were visualized using the ECL system (Pierce Chemical, TX, USA). Other proteins were detected by Odyssey (LI-COR, NE, USA) at a wavelength of 700 nm or 800 nm. […] Tumor lysates were subjected to western blotting. The following antibodies were purchased from Cell Signaling Technology (Cell Signaling Technology Cat#3148, RRID : AB_1031042): anti-MET (Cell Signaling Technology Cat# 3148, RRID : AB_1031042), anti-p-MET Y1234/1235 (Antibodies-Online Cat# ABIN461461, RRID : AB_10786128), anti-AXL (Cell Signaling Technology Cat# 4566, RRID : AB_2062563), anti-p-AXL Y702 (5724S), anti-ERK (9107S), anti-p-ERK Thr202/Tyr204 (4370S), anti-p-AKT Ser473 (4060S), and anti-AKT (Cell Signaling Technology Cat# 2920, RRID : AB_1147620)."}, "AXL phosphorylation": {"system": "AXL phosphorylation", "test": "Western blot of signaling molecules in SNU-5 cells", "type": "cell-based, human", "description": "as §1"}, "ERK phosphorylation": {"system": "ERK phosphorylation", "test": "Western blot of signaling molecules in SNU-5 cells", "type": "cell-based, human", "description": "as §1"}, "MET phosphorylation": {"system": "MET phosphorylation", "test": "Western blot of signaling molecules in SNU-5 cells", "type": "cell-based, human", "description": "as §1"}, "phosphorylation of MET": {"system": "phosphorylation of MET", "test": "Western blot of tumor lysates from GA3121 PDX model", "type": "in vivo, immunodeficient mice", "conditions": "20 mg/kg, 21 days", "description": "as §1\nHuman tumor xenografts were established in female BALB/cA nude mice (5-6 weeks old) by administering the SNU-5 and MKN-45 cells, which have high MET expression levels. […] The subcutaneous tumor size and body weight were measured twice weekly. The tumor volumes were determined by measuring two perpendicular diameters with calipers and calculated as (length × width^2)/2."}}, "note": "Values joined by “and” are separate entries in the source; they are usually repeats but may differ in a detail not shown here. Identical values can stand only once. “Also recorded” adds a separate entry of the source.", "data": [{"smiles": "Cc1c(C(=O)Nc2ccc(Oc3ccnc4cc(OCC(C)(C)O)ccc34)c(F)c2)c(=O)n(-c2ccccc2)n1C", "note": "[CT053PTSA]", "values": [{"measurement": "duration of SD in single patients", "setting": "[1]; 60 mg QD", "result": "16 weeks and 24 weeks"}, {"measurement": "duration of SD in single patient", "setting": "[1]; 100 mg dose group", "result": 8, "unit": "weeks"}, {"measurement": "CR or PR", "setting": "[1]; 17 evaluated patients", "result": "none of them achieved CR or PR; also recorded: No CR or PR was observed"}, {"measurement": "DCR", "setting": "[1]; 17 evaluated patients", "result": 29.4, "unit": "%"}]}, {"smiles": "Cc1c(C(=O)Nc2ccc(Oc3ccnc4cc(OCC(C)(C)O)ccc34)c(F)c2)c(=O)n(-c2ccccc2)n1C", "note": "[CT053]", "values": [{"measurement": "IC50", "setting": "MERTK", "result": 14, "unit": "nM"}, {"measurement": "IC50", "setting": "TXK", "result": 270, "unit": "nM"}, {"measurement": "IC50", "setting": "ITK", "result": 240, "unit": "nM"}, {"measurement": "IC50", "setting": "Fer", "result": 330, "unit": "nM"}, {"measurement": "IC50", "setting": "Musk", "result": 310, "unit": "nM"}, {"measurement": "IC50", "setting": "AXL", "result": 0.44, "unit": "nM"}, {"measurement": "IC50", "setting": "GTL16", "result": 170, "unit": "nM"}, {"measurement": "IC50", "setting": "MKN74", "result": 6880, "unit": "nM"}, {"measurement": "IC50", "setting": "AZ521", "result": "> 10000", "unit": "nM"}, {"measurement": "IC50", "setting": "KATOIII", "result": "> 10000", "unit": "nM"}, {"measurement": "suppression of induced AKT activity", "setting": "AKT phosphorylation", "result": "a much higher concentration of CT053 was required"}, {"measurement": "concentration that completely suppressed AXL phosphorylation", "setting": "AXL phosphorylation", "result": 100, "unit": "nM"}, {"measurement": "concentration that completely suppressed phosphorylation of ERK", "setting": "ERK phosphorylation", "result": 1000, "unit": "nM"}, {"measurement": "concentration that completely suppressed phosphorylation of MET", "setting": "MET phosphorylation", "result": 1000, "unit": "nM"}, {"measurement": "phosphorylation of MET in tumors vs vehicle", "setting": "phosphorylation of MET", "result": "significantly inhibited"}]}]}
